Measurements from patent US20100113544A1, “Suppressant for cerebral infarction attributed to long-time ischemia” (Ehime University, priority 2004, published 2010).
Marks after values point to notes of the source that are not given here.

Experiments:
[1] = patients who received the drug; cited from earlier work
[2] = test system: neurons in the rat striatum; settings: administered 4 times: immediately, 6, 24 and 48 hours after 15 minutes of transient ischemia, rats; cited from earlier work
[3] = test system: ED1-positive cells (macrophages); experiment: Number of ED1-positive cells / macrophages in brain sections (ED1 immunohistochemistry) after 2 h middle cerebral artery occlusion and reperfusion; format: in vivo, rat; settings: for number of ED1-positive cells: versus control; for number of ED1-positive cells, Differences (number of macrophages), +0.7 mm to the bregma / number of ED1-positive cells, Differences (number of macrophages), +1.7 mm to the bregma / number of ED1-positive cells, Differences (number of macrophages), −0.3 mm to the bregma: difference between ischemic and non-ischemic sides; for number of ED1-positive cells, Differences (number of macrophages), +0.7 mm to the bregma / number of ED1-positive cells, Differences (number of macrophages), +1.7 mm to the bregma / number of ED1-positive cells, Differences (number of macrophages), −0.3 mm to the bregma / number of ED1-positive cells, +0.7 mm to the bregma / number of ED1-positive cells, +1.7 mm to the bregma / number of ED1-positive cells, −0.3 mm to the bregma: 1000 mg/kg i.p. twice
Procedure: (§1) One of the causes for organ dysfunction resulting from ischemia is reperfusion injury after recovery of blood flow, and the inflammatory response is an important factor which induces reperfusion injury. Therefore, as an index of inflammation subsequent to reperfusion of blood flow, the numbers of neutrophils and macrophages were determined.
(§2) Thirty-two male Wistar rats weighting about 300 g were divided into 4 groups with 8 rats in each. The middle cerebral artery of all rats was occluded for two hours, as shown in Example 1. […] Subsequently, 12 or 24 hours after recovery of blood flow, the brain was taken out after perfusion with physiological saline. Frozen sections having 6 μm thick was prepared at a distance of about 1.7 mm rostral to the bregma, i.e. anterior fontanel, 0.7 mm rostral to the bregma toward the rostral side, and 0.3 mm caudal to the bregma.
After observing these frozen sections by light microscopy, the total numbers of neutrophils on the ischemic and non-ischemic sides were obtained rseparately. Also, frozen sections obtained from identical rats were subjected to immunochemistry with an antibody for ED1 which is a cell surface marker of macrophages. ED1 is considered to exist in cells besides macrophages, and in fact, ED1-positive cells were also observed on the non-ischemic side in the experiment. However, as in Table 2, neutrophils were not observed on non-ischemia side, where inflammation was not observed. Therefore, with regard to ED1-positive cells, the difference in the number of cells between the ischemic and non-ischemic sides was calculated. The difference was determined as the number of macrophages and compared between each corresponding group. In Tables 2 and 3, “*” denotes a case in which significant differences versus the control group were observed by p<0.05 by Fisher's PLSD (protected least significant difference) tests, and “**” denotes a case in which significant difference was observed by p<0.01.

[4] = test system: cerebral infarction after 2 hours middle cerebral artery occlusion in male Wistar rats; experiment: Size of cerebral infarction (triphenyltetrazolium chloride staining, planimetry) 24 h after reperfusion following 2 h middle cerebral artery occlusion; format: in vivo, rat; settings: for size of cerebral infarction, Cerebral cortex / size of cerebral infarction, Striatum / size of cerebral infarction, Total: mean ± SD
Source text: These rats were anesthetized with a gas mixture of 2% halothane, 49% oxygen and 49% laughing gas, i.e. N2O, and kept under spontaneous breathing. Subsequently, a median incision was made in the neck of the rat placed on its back, and the right common carotid artery was exposed. After an intraperitoneal injection of 100 units of heparin, the root of the right middle cerebral artery was occluded by inserting 4·0 nylon thread coated with silicone into the right internal carotid artery from the bifurcation of the internal and external carotid arteries. The tip of the nylon thread was placed 18 mm from the bifurcation. After suture of the incision of the skin, the rats were allowed to recover from anesthesia. During surgery, an electronic thermometer was inserted into the rectum, and the temperature of the rectum was maintained at 37.0±0.1° C. with a lamp.
Five minutes before reperfusion of blood flow, the rats were anesthetized again. After opening the skin suture, the cerebral blood flow was resumed by removing the nylon thread by 5 mm 2 hours after middle cerebral artery occlusion. […] After recovery from anesthesia, the rats were allowed to access food and water freely.
Twenty-four hours after recovery of blood flow, sodium pentobarbital was intraperitoneally administered to the rats for anesthesia. Subsequently, the brain was perfused with heparinized-physiological saline, and the rat was decapitated. The brain was quickly taken out, and rinsed in physiological saline. The brain was sliced coronally between the optic chiasm and the caucal edge of the mammillary body at a thickness of 2 mm. These brain slices were subjected to incubation with 2% triphenyltetrazolium chloride in phosphate buffer (0.1 mol/L, pH 7.4) at 37° C. As a result, due to the action of dehydrogenase present in viable cells, triphenyltetrazolium chloride was reduced, and the tissue was stained in dark red. On the other hand, the dead tissue in the infarcted area was not stained. These brain slices were preserved in phosphate-buffered formalin overnight. […] The obtained size of cerebral infarction was subjected to analysis of variance and the Scheffe test.
The values in the table (unit: mm^3) indicate the size of cerebral infarction as the “mean ±standard deviation”, while “*” denotes a case in which it was significant versus the control group by p<0.05, and “**” denotes a case in which it was significant versus the control group by p<0.01.

neutrophils = experiment: Number of neutrophils in brain sections (myeloperoxidase immunohistochemistry) after 2 h middle cerebral artery occlusion and reperfusion; format: in vivo, rat; settings: for number of neutrophils, +0.7 mm to the bregma / number of neutrophils, +1.7 mm to the bregma / number of neutrophils, −0.3 mm to the bregma: 1000 mg/kg i.p. twice
Procedure: as §1, §2
After observing these frozen sections by light microscopy, the total numbers of neutrophils on the ischemic and non-ischemic sides were obtained rseparately. Also, frozen sections obtained from identical rats were subjected to immunochemistry with an antibody for ED1 which is a cell surface marker of macrophages. […] Therefore, with regard to ED1-positive cells, the difference in the number of cells between the ischemic and non-ischemic sides was calculated. The difference was determined as the number of macrophages and compared between each corresponding group.

[5] = test system: pyramidal neurons in the hippocampal CA-1 region; settings: administration prior to transient ischemia (5 or 10 minutes forebrain ischemia), rat; cited from earlier work
[6] = 12 hours after the onset of reperfusion
[7] = 12 hours after the onset of reperfusion, ischemic side
[8] = 12 hours after the onset of reperfusion, non-ischemic side
[9] = 24 hours after the onset of reperfusion
[10] = 24 hours after the onset of reperfusion, ischemic side
[11] = 24 hours after the onset of reperfusion, non-ischemic side
[12] = administration after ischemia, 200 mg/kg i.p. immediately and 6 h after reperfusion
[13] = administration after ischemia, 500 mg/kg i.p. immediately and 6 h after reperfusion
[14] = administration after ischemia, 1000 mg/kg i.p. immediately and 6 h after reperfusion
[15] = administration before ischemia, 1000 mg/kg i.p. once 10 min before occlusion, 24 h after reperfusion
[16] = 12 hours after onset of reperfusion, ischemic side
[17] = 12 hours after onset of reperfusion, non-ischemic side
[18] = 24 hours after onset of reperfusion, ischemic side
[19] = 24 hours after onset of reperfusion, non-ischemic side

## CC1=NN(c2ccccc2)C(=O)C1 [edaravone]
[1]
  patients who showed abnormal values in laboratory tests on the liver function: 21.4%

## N[C@@H](Cc1c[nH]cn1)C(=O)O [histidine]
[2]
  neuronal death 7 days after ischemia caused by apoptosis: depressed
[3]; 12 hours after ischemia for 2 hours, cross section at +0.7 mm rostral to the bregma
  number of ED1-positive cells: significantly decreased
[3]; [6]
  number of ED1-positive cells, Differences (number of macrophages), +0.7 mm to the bregma: 123 ± 100*
  number of ED1-positive cells, Differences (number of macrophages), +1.7 mm to the bregma: 135 ± 101
  number of ED1-positive cells, Differences (number of macrophages), −0.3 mm to the bregma: 92 ± 107
[3]; [7]
  number of ED1-positive cells, +0.7 mm to the bregma: 450 ± 190
  number of ED1-positive cells, +1.7 mm to the bregma: 366 ± 149
  number of ED1-positive cells, −0.3 mm to the bregma: 363 ± 186
[3]; [8]
  number of ED1-positive cells, +0.7 mm to the bregma: 328 ± 113
  number of ED1-positive cells, +1.7 mm to the bregma: 238 ± 95
  number of ED1-positive cells, −0.3 mm to the bregma: 309 ± 72
[3]; 24 hours after ischemia, all cross sections
  number of ED1-positive cells: significant decreases
[3]; [9]
  number of ED1-positive cells, Differences (number of macrophages), +0.7 mm to the bregma: 141 ± 104*
  number of ED1-positive cells, Differences (number of macrophages), +1.7 mm to the bregma: 125 ± 72*
  number of ED1-positive cells, Differences (number of macrophages), −0.3 mm to the bregma: 190 ± 93*
[3]; [10]
  number of ED1-positive cells, +0.7 mm to the bregma: 264 ± 101
  number of ED1-positive cells, +1.7 mm to the bregma: 230 ± 57
  number of ED1-positive cells, −0.3 mm to the bregma: 340 ± 107
[3]; [11]
  number of ED1-positive cells, +0.7 mm to the bregma: 124 ± 34
  number of ED1-positive cells, +1.7 mm to the bregma: 104 ± 28
  number of ED1-positive cells, −0.3 mm to the bregma: 150 ± 46
[4]; 200 mg/kg immediately after reperfusion and 6 hours thereafter
  infarcted volume compared with that of the control group: 71%
[4]; 500 mg/kg immediately after reperfusion and 6 hours thereafter
  infarcted volume compared with that of the control group: 39%
[4]; 1000 mg/kg immediately after reperfusion and 6 hours thereafter
  infarcted volume compared with that of the control group: 7%
[4]; [12]
  size of cerebral infarction, Cerebral cortex: 78.8 ± 52.3 mm^3
  size of cerebral infarction, Striatum: 34.3 ± 23.0 mm^3
  size of cerebral infarction, Total: 113.2 ± 74.0 mm^3
[4]; [13]
  size of cerebral infarction, Cerebral cortex: 39.9 ± 44.5 mm^3
  size of cerebral infarction, Striatum: 19.1 ± 24.4** mm^3
  size of cerebral infarction, Total: 59.0 ± 63.4* mm^3
[4]; [14]
  size of cerebral infarction, Cerebral cortex: 7.5 ± 13.3** mm^3
  size of cerebral infarction, Striatum: 3.3 ± 12.8** mm^3
  size of cerebral infarction, Total: 10.7 ± 14.5** mm^3
[4]; [15]
  size of cerebral infarction, Cerebral cortex: 81.4 ± 26.0 mm^3
  size of cerebral infarction, Striatum: 34.4 ± 16.0 mm^3
  size of cerebral infarction, Total: 115.8 ± 39.2 mm^3
[4]; pre-ischemic histidine 1000 mg/kg administration group
  size of infarction compared with that of the control group: no significant difference
neutrophils; 12 hours after ischemia, histidine-administration group versus control
  neutrophil infiltration: significantly suppressed
neutrophils; [16]
  number of neutrophils, +0.7 mm to the bregma: 128 ± 82
  number of neutrophils, +1.7 mm to the bregma: 101 ± 80
  number of neutrophils, −0.3 mm to the bregma: 106 ± 54
neutrophils; [17]
  number of neutrophils, +0.7 mm to the bregma: 0 ± 0
  number of neutrophils, +1.7 mm to the bregma: 1 ± 2
  number of neutrophils, −0.3 mm to the bregma: 0 ± 0
neutrophils; [18]
  number of neutrophils, +0.7 mm to the bregma: 250 ± 169
  number of neutrophils, −0.3 mm to the bregma: 287 ± 162
neutrophils; [19]
  number of neutrophils, +0.7 mm to the bregma: 0 ± 0
  number of neutrophils, +1.7 mm to the bregma: 1 ± 2
  number of neutrophils, −0.3 mm to the bregma: 0 ± 0
[5]
  programmed death (delayed neuronal death) of neurons: depressed
